In patent publication US20260258050A1, “IMMUNOMODULATOR” (HITGEN INC., priority 2023, published 2026):

How the values were obtained:
Human IL-17AF = target: T1, Human IL-17AF (Homo sapiens, UniProt Q16552+Q96PD4); experiment: IL-17AF ELISA (competitive ELISA, IL-17AF/IL-17Ra receptor-ligand binding); conditions: human IL-17AF coated plate, human IL-17Ra, read-out: IC50, inhibitory activity of compounds on human IL-17AF
T1 construct: purchased Sino Biological Inc. CT047-H08H
T1 sequence (Q16552 24-155): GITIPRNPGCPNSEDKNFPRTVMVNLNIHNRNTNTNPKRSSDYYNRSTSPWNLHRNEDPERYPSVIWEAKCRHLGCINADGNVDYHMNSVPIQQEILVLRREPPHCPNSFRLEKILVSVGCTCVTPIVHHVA
T1 sequence (Q96PD4 31-163): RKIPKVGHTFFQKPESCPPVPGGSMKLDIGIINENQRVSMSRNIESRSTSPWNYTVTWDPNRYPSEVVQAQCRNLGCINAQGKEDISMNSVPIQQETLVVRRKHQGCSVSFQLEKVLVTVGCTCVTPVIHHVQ
Method: Experiment Example 2 IL-17AF ELISA
The inhibitory effects of human IL-17AF inhibitors on receptor-ligand binding were quantitatively determined by a competitive ELISA.
The ELISA was performed through the following steps.
Human IL-17AF (Sino Biological Inc., Cat #CT047-H08H) was diluted with coating buffer (50 mM PBS, pH 7.4) to reach a concentration of 0.625 μg/ml. 100 μL of the resulting solution was added to each well of a 96-well plate, and the plate was incubated at 37° C. for 30 min. In the blank group, 100 μL of coating buffer was added instead of the IL-17AF solution.
The plate was washed four times with 10 mM PBST (pH 7.4). 200 μL was used per well for each wash. After the final wash, the plate was tapped dry on absorbent paper.
Fresh 5% (w/v) skim milk solution was prepared before the experiment. For example, 5 grams of skim milk powder (Bio-Rad, Cat #170-6404) was completely dissolved in 100 mL of 10 mM PBST. 200 μL of the 5% (w/v) skim milk solution was added to each well, and the plate was incubated on a shaker at 25° C. for 30 min.
(S4) Preparation of 100× to-be-Tested Compound Solutions
During step (S3), the to-be-tested compound solutions were prepared. Each powdered compound was dissolved in dimethyl sulfoxide (DMSO) to reach a stock concentration of 10 mM. The to-be-tested compound solutions were then serially diluted four-fold with DMSO to obtain nine concentrations ranging from […].
(S6) Pre-Incubation of IL-17AF with to-be-Tested Compound Solutions
89 μL of PBST and 1 μL of each of the to-be-tested compound solutions were added to each well and mixed. The plate was pre-incubated at 25° C. for 10 min. In the blank group and the control group, 1 μL of DMSO was added instead of the to-be-tested compound solutions.
(S7) Incubation with Human IL-17Ra
10 μL of 100 nM IL-17Ra (Sino Biological Inc., Cat #10895-H03H) was added to each well, followed by incubation on a shaker at 25° C. for 30 min. The receptor solution was prepared in 10 mM PBST.
(S9) Incubation with Horseradish Peroxidase-Conjugated Antibody
100 μL of mouse anti-Fc tag HRP-conjugated antibody (Sino Biological Inc., Cat #10702-MM01T-H) was added to each well. The plate was incubated on a shaker at 25° C. for 30 min. The antibody was diluted with 5% (w/v) skim milk solution at 1:5,000 (v/v).
100 μL of TMB substrate solution (BD, Cat #555214) was added to each well. Substrate A and substrate B were freshly mixed at a volume ratio of 1:1 before use. The plate was incubated in the dark at 25° C. for 5-15 min.
(S12) Termination and Detection
The color reaction was terminated by addition of 2.5 M HCl. Absorbance was measured at 450 nm using a BMG PHERStar microplate reader.
(S13) Calculation of Half-Maximal Inhibitory Concentration (IC50)
The relative percent residual activity at each compound concentration was calculated according to Equation 1. The IC50 value of each test compound was then calculated in GraphPad 6 using the equation for log(inhibitor) versus normalized response with variable slope, as shown in Equation 2.
relative percent residual activity (%)=[(absorbance of sample−absorbance of blank group)/(absorbance of control group−absorbance of blank group)]%. Equation 1: […]
The compounds prepared in the Examples were tested for IL-17AF inhibitory activity according to the above method.

Human IL-17A [1] = target: T2, Human IL-17A (Homo sapiens, UniProt Q16552); experiment: IL-17A enzyme-linked immunosorbent assay (competitive ELISA, IL-17A/IL-17Ra receptor-ligand binding); parameters: purchased Sino Biological Inc. 12047-H07B; conditions: human IL-17A coated plate, human IL-17Ra, read-out: IC50, inhibitory activity of compounds on human IL-17A
T2 sequence (Q16552 20-155 limits assumed): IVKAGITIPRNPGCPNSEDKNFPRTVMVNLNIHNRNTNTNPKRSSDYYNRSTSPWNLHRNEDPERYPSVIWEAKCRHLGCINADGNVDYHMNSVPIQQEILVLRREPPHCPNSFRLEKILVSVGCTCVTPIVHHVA
Procedure, shortened: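 Competitive ELISA with plates coated with human IL-17A at 0.2 μg/ml, blocked with 5% skim milk. Compound pre-incubated with IL-17A 10 min at 25 °C, then 16 nM IL-17Ra stock added for 30 min. Bound receptor detected by anti-Fc HRP/TMB, A450. IC50 from variable-slope fit of blank-corrected residual activity.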

Human IL-17A [2] = target: T2, Human IL-17A; experiment: Inhibition of human IL-17A protein-induced GROα/CXCL1 production in HT-29 cells; assay type: cell-based; parameters: purchased R&D 317-ILB; host or cells: added exogenously to HT-29 cells; conditions: 30 ng/mL human IL-17A protein, 48 h, GROα in supernatant by ELISA kit, read-out: Inhibitory IC50 of compounds on HT-29 cell GROα/CXCL1
Method: Experiment Example 3 Inhibition of Human IL-17A Protein-Induced GROα/CXCL1 Production in HT-29 Cells by Compounds
This assay was conducted to evaluate the ability of the compounds to inhibit human IL-17A protein-induced production of the chemokine growth-regulated oncogene alpha/C-X-C motif chemokine ligand 1 (GROα/CXCL1) in HT-29 cells.
Human colorectal adenocarcinoma epithelial HT-29 cells (Chengdu Zhongyuan Gongchuang Technology Co., Ltd.) were seeded into a 96-well plate at a density of 5×10^4 cells per well and were cultured overnight in an incubator at 37° C.
30 ng/mL of human IL-17A protein (R&D, #317-ILB) was mixed with gradient concentrations of the IL-17A small-molecule inhibitor, or with […] of a positive control IL-17A antibody (R&D, #AF-317-NA). These mixtures were incubated at 37° C. for 1 h and were then added to the plate. The mixtures were co-incubated with the HT-29 cells at 37° C. for 48 h. Thereafter, the level of GROα in the cell culture supernatant was determined using a GROα ELISA kit (Cisbio, #62HCXC1PEG).
The inhibitory activity of each compound was expressed as the half-maximal inhibitory concentration (IC50) for inhibition of GROα/CXCL1 production in HT-29 cells.

| IC50 (Human IL-17AF) | IC50 (Human IL-17A [1]) | IC50 (Human IL-17A [2]) | SMILES |
| --- | --- | --- | --- |
| 100 to 500 nM | ≤ 50 nM | – | Cc1[nH]nc2c1-c1cc(F)c(NC(=O)[C@@H](NC(=O)c3ccnn3C(C)C)C(C3CC3)C3CC3)cc1CN(C(C)C(F)(F)F)C(=O)C2 (single isomer, unassigned) [compound 186b] |
| – | ≤ 50 nM | ≤ 100 nM | Cc1[nH]nc2c1-c1cc(F)c(NC(=O)[C@@H](NC(=O)c3ccnn3CCCF)C(C3CC3)C3CC3)cc1CN(CC(F)F)CC2 [compound 181] |
| 100 to 500 nM | – | – | Cc1[nH]nc2c1-c1cnc(NC(=O)[C@@H](NC(=O)c3ccnn3C(C)C)C(C3CC3)C3CC3)cc1CN(Cc1ccccc1)CC2 [compound 184] |
| 100 to 500 nM | – | – | Cc1[nH]nc2c1-c1cc(F)c(NC(=O)[C@@H](NC(=O)c3ccnn3C(C)C)C(C3CC3)C3CC3)cc1CN(Cc1ccccc1)CC2 [compound 185] |
| – | ≤ 50 nM | ≤ 100 nM | Cc1[nH]nc2c1-c1cnc(NC(=O)[C@@H](NC(=O)c3ccnn3C(C)C)C(C3CC3)C3CC3)cc1CN(C1CCC1)C(=O)C2 [compound 197] |
| – | ≤ 50 nM | ≤ 100 nM | Cc1[nH]nc2c1-c1cnc(NC(=O)[C@@H](NC(=O)c3ccnn3C3CC3)C(C3CC3)C3CC3)cc1CN(C1CC1)CC2 [compound 219] |
| – | ≤ 50 nM | ≤ 100 nM | CC(C)=C(F)C(=O)N[C@H](C(=O)Nc1cc2c(cc1F)-c1c(n[nH]c1C)CCOC2)C(C1CC1)C1CC1 [compound 232] |
| – | ≤ 50 nM | ≤ 100 nM | C=C(F)C(=O)N[C@H](C(=O)Nc1cc2c(cc1F)-c1c(n[nH]c1C)CCOC2)C(C1CC1)C1CC1 [compound 233] |
| – | ≤ 50 nM | ≤ 100 nM | CC(C)=C(F)C(=O)N[C@H](C(=O)Nc1cc2c(cn1)-c1c(n[nH]c1C)CCOC2)C(C1CC1)C1CC1 [compound 244] |
| – | ≤ 50 nM | ≤ 100 nM | C=C(F)C(=O)N[C@H](C(=O)Nc1cc2c(cn1)-c1c(n[nH]c1C)CCOC2)C(C1CC1)C1CC1 [compound 245] |

Second part, the molecule before the results:

| SMILES | IC50 (Human IL-17AF) | IC50 (Human IL-17A [1]) | IC50 (Human IL-17A [2]) |
| --- | --- | --- | --- |
| CCn1nccc1C(=O)N[C@H](C(=O)Nc1cc2c(cc1F)-c1c(n[nH]c1C)CC(C)OC2)C(C1CC1)C1CC1 (single isomer, unassigned) [compound 119a] | 100 to 500 nM | ≤ 50 nM | – |
| CCn1nccc1C(=O)N[C@H](C(=O)Nc1cc2c(cc1F)-c1c(n[nH]c1C)CC(C)OC2)C(C1CC1)C1CC1 (single isomer, unassigned) [compound 119b] | 100 to 500 nM | ≤ 50 nM | – |
| [2H]C([2H])([2H])n1nccc1C(=O)N[C@H](C(=O)Nc1ccc2c(c1)COCCc1n[nH]c(C)c1-2)C(C1CC1)C1CC1 [compound 7] | 100 to 500 nM | 50 to 150 nM | – |
| CCn1nccc1C(=O)N[C@H](C(=O)Nc1ccc2c(c1)COCCc1n[nH]c(C)c1-2)C1CCCCC1 [compound 8] | 100 to 500 nM | 50 to 150 nM | – |
| CCn1nccc1C(=O)N[C@H](C(=O)Nc1ccc2c(c1)COCCc1n[nH]c(C)c1-2)C1c2ccc(F)cc2OCC12CC2 (some centres unmarked) [compound 9] | 100 to 500 nM | ≤ 50 nM | – |
| CCn1nccc1C(=O)N[C@H](C(=O)Nc1ccc2c(c1)COCCc1n[nH]c(C)c1-2)[C@H]1CC[C@H](C)CC1 [compound 10] | 100 to 500 nM | ≤ 50 nM | – |
| Cc1[nH]nc2c1-c1cc(F)c(NC(=O)[C@@H](NC(=O)c3ccnn3C3CC3)C(C3CC3)C3CC3)cc1COCC2 [compound 19] | 100 to 500 nM | ≤ 50 nM | – |
| Cc1[nH]nc2c1-c1ccc(NC(=O)[C@@H](NC(=O)c3ccnn3C(C)C)C(C3CC3)C3CC3)cc1CN(C)CC2 [compound 24] | 100 to 500 nM | 50 to 150 nM | – |
| CCn1nccc1C(=O)N[C@H](C(=O)Nc1ccc2c(c1)CN(C)CCc1n[nH]c(C)c1-2)C(C1CC1)C1CC1 [compound 25] | 100 to 500 nM | 50 to 150 nM | – |
| Cc1[nH]nc2c1-c1ccc(NC(=O)[C@@H](NC(=O)c3ccnn3C)C(C3CC3)C3CC3)cc1CN(C)CC2 [compound 26] | 100 to 500 nM | 50 to 150 nM | – |
| CCc1nocc1C(=O)N[C@H](C(=O)Nc1cc2c(cc1F)-c1c(n[nH]c1C)CCOC2)C(C1CC1)C1CC1 [compound 33] | ≤ 100 nM | ≤ 50 nM | – |
| Cc1[nH]nc2c1-c1cc(F)c(NC(=O)[C@@H](NC(=O)c3conc3C3CC3)C(C3CC3)C3CC3)cc1COCC2 [compound 34] | ≤ 100 nM | ≤ 50 nM | – |
| Cc1[nH]nc2c1-c1cc(F)c(NC(=O)[C@@H](NC(=O)c3conc3C(C)C)C(C3CC3)C3CC3)cc1COCC2 [compound 35] | 100 to 500 nM | ≤ 50 nM | – |
| COCCn1nccc1C(=O)N[C@H](C(=O)Nc1cc2c(cc1F)-c1c(n[nH]c1C)CCOC2)C(C1CC1)C1CC1 [compound 57] | 100 to 500 nM | ≤ 50 nM | – |
| Cc1[nH]nc2c1-c1cc(F)c(NC(=O)[C@@H](NC(=O)c3ccnn3CC(C)(C)F)C(C3CC3)C3CC3)cc1COCC2 [compound 82] | 100 to 500 nM | 50 to 150 nM | – |
| COCCN1Cc2cc(NC(=O)[C@@H](NC(=O)c3ccnn3C3CC3)C(C3CC3)C3CC3)c(F)cc2-c2c(n[nH]c2C)CC1=O [compound 139] | 100 to 500 nM | – | – |
| Cc1[nH]nc2c1-c1cc(F)c(NC(=O)[C@@H](NC(=O)c3ccnn3C(C)C)C(C3CC3)C3CC3)cc1CN(C1CCC(F)(F)CC1)CC2 [compound 175] | – | ≤ 50 nM | ≤ 100 nM |
| Cc1[nH]nc2c1-c1cc(F)c(NC(=O)[C@@H](NC(=O)c3conc3C(C)C)C(C3CC3)C3CC3)cc1CN(CC(F)F)CC2 [compound 180] | – | ≤ 50 nM | ≤ 100 nM |
